Measured values taken from patent US4482554A, “Pharmaceutical compositions containing oxicam derivatives and process for their preparation” (Warner-Lambert Company, priority 1982, dated 1984).
Counter-ions that a name gives are not always drawn. Like-named read-outs stand apart in the source and are kept apart here. One block for each molecule: values may come before it.

Experiments:
[1] = stability of solutions / precipitation of active material on storage; assay type: physicochemical
Excerpt: Especially in the case of oxicam derivatives of general formula (I), there is, in addition, the serious problem of instability of their solutions. Even when such compounds or the salts thereof have been brought into solution, these show a strong tendency, even after a relatively short time, to deposit particles and again to precipitate out a part of the active material. For injection solutions, this is naturally not acceptable.
There are thereby unexpectedly obtained, which was not to have been foreseen by the expert, highly concentrated solutions with a content of up to 30% and preferably of 10 to 20%, referred to the amount of active material used, which, even after storage for 15 months, display no deposition of active material. It is most surprising that this stability is fully retained even at low temperatures.

[2] = solubility in water of stoichiometric oxicam salts; assay type: physicochemical

dependence of degree of precipitation on concentration ([1]; salt solution, over wide ranges): not dependent upon the concentration
solubility ([2]; stoichiometric salt with methylglucamine, per milliliter of solution, read-out: active material per milliliter of solution): 49 mg/mL
Structure (SMILES): Cc1cc(NC(=O)C2=C(O)c3ccccc3S(=O)(=O)N2C)no1
stability of the solution ([1]; stoichiometric salts, precipitation of active material): unstable and again precipitate out considerable amounts of active material

solubility in water after storage ([2]; after 4 months, decreased by precipitation from the solution, 175200 min): 20 mg/mL
solubility in water, initial ([2]; shortly after preparation): about 30 mg/ml
Structure (SMILES): Cc1cc(NC(=O)C2=C(O)c3ccccc3S(=O)(=O)N2C)no1 [potassium salts]

solubility ([2]; shortly after preparation, read-out: solubility in water, initial): ~24 mg/mL
Structure (SMILES): Cc1cc(NC(=O)C2=C(O)c3ccccc3S(=O)(=O)N2C)no1 [sodium salts of isoxicam]
